For data set [1], the system named is S. aureus (144). The experiment in a line: MIC and MBC, broth dilution, S. aureus 144. The class given is cell-based. As to conditions: Staphylococcus aureus; S. aureus 144 (clinical strain). The essentials:
(§1)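 Compounds, in 2.5% tween-80/2.5% DMSO, serially diluted in MH broth over 32–0.01 µg/mL with 5 × 10^5 CFU/mL inoculum, triplicates, 22–26 h at 37 °C; MIC = lowest concentration with no visible growth. MBC from plating non-turbid wells on MH agar, further 22–26 h at 37 °C.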
(In broth dilution the organism is exposed to a series of concentrations in liquid medium.)

The test system of data set [2] is MRSA ATCC 43300. The experiment in a line: Post antibiotic effect (PAE).
Method: By diluting with the preheated MH broth 1000 times, the compound was removed from the sample. […] The samples were diluted decuple with sterile saline and plated onto the preheated MH agar plates. […] The PAE value was calculated by the equation (PAE = TA – TC) and presented after an hour.
The subject of data set [3] is MRSA. Nature of the data set: Neutropenic murine thigh infection model. The class given is in vivo, mice. Here is the method: The neutropenic murine thigh infection model experiment was performed as described in the literature. Six-week-old SPF-ICR female mice weighing 24–28 g were used for this study. The mice were injected with cyclophosphamide (Mead Johnson Pharmaceuticals, Evansville, Indiana—IN, USA) at a dose of 150 mg/kg 4 days and at a dose of 100 mg/kg 1 day before the experiment to reduce neutrophils and achieve immunosuppression (<0.1 × 10^9/L). A total of 0.1 mL MH broth (MRSA concentration approximately 10^7 CFU/mL) was injected into the posterior thigh of mice to establish the infection model. After the thighs of the mice were infected for 2 h, these mice were randomly divided into 3 groups (3 per group). […] A total of 24 h after the completion of the drug, the mice were euthanized and their thigh tissues were collected. Then, their thigh tissues were weighed and homogenized, respectively, in 3 mL of iced sterile saline. Tissue homogenate was serially diluted 10-fold and plated on MH agar. The resulting bacterial colonies were determined after incubation for 24 h.

Data set [4] deals with methicillin-resistant S. aureus (ATCC 43300). Nature of the data set: MIC and MBC, broth dilution, MRSA ATCC 43300. Type of data set: cell-based. The settings on record: Staphylococcus aureus. An outline of the steps: as §1
Data set [5] has as its system 50S ribosome. Nature of the data set: SPR interaction and affinity analysis. The class given is binding, S. aureus ATCC 43300. As to conditions: 4 °C. The essentials: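 50S subunit purified from S. aureus ATCC 43300 by sucrose cushion/gradient; compounds (100 μM in DMSO) photo-cross-linked on sensor chip. Ribosome flowed at 200–3200 nM in PBST pH 7.4, 4 °C, 600 s association, 360 s dissociation. KD = Kd/Ka from 1:1 Langmuir fit with mass transfer.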

Values after ≈ are worked out from the molar mass of the structure shown.

`C=C[C@]1(C)C[C@@H](OC(=O)CNc2ccc(F)cc2)[C@]2(C)[C@H](C)CC[C@]3(CCC(=O)[C@H]32)[C@@H](C)[C@@H]1O` [Compound 9, 22-(4-Fluoroanilineyl)-22-deoxypleuromutilin]: the melting point (commonly the temperature of the solid-liquid transition) lay in the range of 91 to 93 °C. In data set [1], the MBC – broadly, the smallest concentration meeting the test's criterion for killing – is 1 µg/mL (≈ 2.12 µM) and the minimal inhibitory concentration (MIC) – broadly, the lowest concentration that inhibits growth of the organism – came to 0.5 µg/mL (≈ 1.06 µM). The compound also had a PAE in data set [2] (exposure to 2× MIC for 2 h) of 1.54 h. The compound further registered a PAE in data set [2] (exposure to 4× MIC for 2 h) of 1.71 h. Besides, the “reduction of MRSA load in thigh compared with tiamulin” value in data set [3] (20 mg/kg each, difference to tiamulin group) is given as ~ 0.7 log10 CFU/mL. For the same compound, the “reduction of MRSA load in thigh” value in data set [3] (20 mg/kg intravenously, 24 h, compared to the no-drug control group) is reported as ~ 1.3 log10 CFU/mL. In data set [4], this compound had an MBC of 0.25 µg/mL (≈ 0.53 µM) and an MIC of 0.06 µg/mL (≈ 0.127 µM). In data set [5] (1:1 Langmuir binding), this compound yielded an Avg ka of 417 M⁻¹ s⁻¹ and an Avg kd of 7.39e-06 s⁻¹. For the same compound, in data set [5] (KD = Kd/Ka), the Kd (usually the constant that tells how readily two partners part at equilibrium) was found to be 17.7 nM.

These data come from publication PMC8838415, “Discovery of Novel Pleuromutilin Derivatives as Potent Antibacterial Agents for the Treatment of MRSA Infection” (Molecules, 2022).
